In patent publication US20140051577A1, “SUBSTITUTED 5-(BICYCLO[4.1.0]HEPT-3-EN-2-YL)PENTA-2,4-DIENES AND 5-(BICYCLO[4.1.0]HEPT-3-EN-2-YL)PENT-2-ENE-4-INES AS ACTIVE AGENTS AGAINST ABIOTIC STRESSES IN PLANTS” (priority 2011, published 2014):

System: Brassica napus
Experiment: Drought stress test on crop plants in greenhouse, spray application, efficacy vs untreated stressed control
Type: in vivo
Conditions: dosage 25 g/ha, mean of three results
Procedure: Seeds of monocotyledonous and dicotyledonous crop plants were laid out in sandy loam in wood-fiber pots, covered with soil and cultivated in a greenhouse under good growth conditions. The test plants were treated at the early leaf stage (BBCH10-BBCH13). To ensure uniform water supply before commencement of stress, the potted plants were supplied with the maximum amount of water immediately beforehand by dam irrigation and, after application, transferred in plastic inserts in order to prevent subsequent, excessively rapid drying. The inventive compounds, formulated in the form of wettable powders (WP), wettable granules (WG), suspension concentrates (SC) or emulsion concentrates (EC), were sprayed onto the green parts of the plants as an aqueous suspension at an equivalent water application rate of 600 l/ha with addition of 0.2% wetting agent (agrotin). Substance application is followed immediately by stress treatment of the plants (cold or drought stress). […]
After the recovery phase had ended, the intensities of damage were rated in visual comparison to untreated, unstressed controls of the same age (in the case of drought stress) or the same growth stage (in the case of cold stress). The intensity of damage was first assessed as a percentage (100%=plants have died, 0%=like control plants). […]

In the case of `CCOC(=O)/C=C(/C)C#CC1(O)C(C)=CC(=O)C2CC21C` (centres unmarked) [I.1-394, Ethyl (2Z)-5-(2-hydroxy-1,3-dimethyl-5-oxobicyclo[4.1.0]hept-3-en-2-yl)-3-methylpent-2-en-4-ynoate], the “EF (BRSNS): efficacy, percentage reduction in the intensity of damage (second table headed TABLE A-1)” value (BRSNS as printed) is reported as >5% and the “EF (BRSNS): efficacy, percentage reduction in the intensity of damage” value (Brassica napus) is reported as >5%.
